These are literature values, as cited in US20170326154A1, “Pre-Operative Composition for Sedation or Analgesia” (priority 2016, published 2017).

Structures are written as SMILES. Like-named read-outs stand apart in the source and are kept apart here.

The conditions of data set [1]: basic drug, nitrogen atom in the imidazole ring.

As to `Cc1ncc2n1-c1ccc(Cl)cc1C(c1ccccc1F)=NC2` [Midazolam, 8-chloro-6-(2′-fluorophenyl)-1-methyl-4H-imidazo[1,5-a][1,4]-benzodiazepine], the “adequate sedation within (time)” value by setting is: (intranasal administration) 10 to 15 min; (oral administration) 10 to 20 min. In data set [1], the pKa value is 5.5 and 6.2.
